Test results reported in patent publication US12382957B2, “Lactam compound or salt thereof, complex, and fertilizer and plant growth regulator containing said compound or salt and complex” (AICHI STEEL CORPORATION, priority 2020, dated 2025).

How the values were obtained:
[1] = Stability of aqueous solution (1H-NMR in waters with different pH); format: physicochemical; settings: aqueous solutions of pH 1 (hydrochloric acid), pH 7 (water), pH 9 (sodium hydrogen carbonate), FIG. 1
Experimental: In order to investigate the stability of the lactam compound (L2) in water having different pH, an aqueous solution having a pH of 1 using hydrochloric acid, an aqueous solution having a pH of 7 in which the lactam compound (L2) was dissolved in water, and an aqueous solution having a pH of 9 using sodium hydrogen carbonate were subjected to ^1H-NMR measurement.

[2] = tested on: paddy rice variety "Nipponbare"; experiment: Alkaline soil cultivation test; format: in vivo; settings: fossil shellfish soil pH9; 30 μmol administered only once; SPAD 7 days after the administration; FIG. 4
Experimental: The paddy rice variety “Nipponbare” was seeded in tap water. When roots and buds emerged, seedlings were soaked in a hydroponic solution (formulation in the Horticultural Experiment Station). When the plant height reached about 7 cm, the seedlings were transplanted into fossil shellfish soil having a pH9. Aqueous solutions containing 30 μmol of each of Fe-PDMA, only PDMA, a complex composed of the lactam compound (L2) and iron sulfate (III) (hereinafter, referred to as “Fe(III)-lactam compound (L2)”), a complex composed of the lactam compound (L2) and iron sulfate (II) (hereinafter, referred to as “Fe(II)-lactam compound (L2)”), lactam compound (L2), disodium ethylenediamine tetraacetate, Fe-EDTA, Fe-EDDHA, iron sulfate (III) or iron sulfate (II). were administered only once to each of the soil to measure SPAD values 7 days after the administration. According to FIG. 4, SPAD values were 33.8 and 30.9, respectively when either the Fe-lactam compound (L2) of divalent and trivalent iron was used.

In the case of `O=C(O)[C@@H]1CCCN1CC[C@@H](C(=O)O)N1CC[C@H](O)C1=O` [lactam compound (L2)], the “stability of the lactam ring in water” value [1] is reported as “the lactam ring structure is maintained” and the “growth effect in alkaline soil” value [2] is reported as “the effect can be obtained”.
